From patent US20230416203A1, “POTENT AND SELECTIVE INHIBITORS OF THE CALCIUM-ACTIVATED POTASSIUM CHANNEL, KCA3.1, FOR USE AS PLATFORM THERAPEUTICS” (priority 2020, published 2023) come the findings set out here.

In one data set the target is KCa3.1 channel (Homo sapiens, UniProt O15554). Kind of data set: KCa3.1 patch-clamp (QPatch HTX automated and manual). The format is cell-based. How it is done: The effect of the compounds on KCa3.1 channel was evaluated by patch-clamp using a QPatch HTX automated electrophysiology platform (Sophion, Denmark) and by manual patch-clamp (HEKA, Germany). For QPatch experiments, the giga-seal and whole-cell requirements for the automated electrophysiology were the following: minimum seal resistance=0.1 GQ; holding potential=−80 mV; holding pressure=−20 mbar; and positioning pressure=−70 mbar. For KCa3.1 experiment, the external solution was Na^+-Ringer's and contained (in mM): 160 NaCl; 10 HEPES; 4.5 KCl; 1 MgCl2; and 2 CaCl2 (pH=7.4, 310 mOsm). […] Following establishment of the whole-cell configuration, cells were held at −80 mV and KCa3.1 currents elicited by a voltage protocol that held at −80 mV for 20 ms, stepped to −120 mV for 20 ms, ramped from −120 to +40 mV over 200 ms, and then stepped back to −120 mV for 20 ms. This pulse protocol was applied every 10 s. Current slopes (in amperes per second) were measured using the Sophion QPatch software and exported to Microsoft Excel and GraphPad Prism 7 for analysis. […] Curve-fitting and IC50 determination were performed using GraphPad Prism software.
(In general: Patch clamp records ionic current or voltage across a cell membrane.)

The next data set deals with T1, KCa1.1 (Homo sapiens, UniProt Q12791).
T1 construct: expressed in transfected cells; host or cells: HEK
In words: Potassium channels patch-clamp (QPatch), KCa1.1. It is filed as cell-based. How it is done:
(§1) The effects of Group 4 compounds on related potassium channels were evaluated by patch-clamp using a QPatch HTX automated electrophysiology platform (Sophion, Denmark). The giga-seal and whole-cell requirements for the automated electrophysiology were the following: minimum seal resistance=0.1 GO, holding potential=−80 mV, holding pressure=−20 mbar; and positioning pressure=−70 mbar.

The next data set addresses T2, KV1.1 (Mus musculus, UniProt P16388).
T2 construct: expressed in transfected cells; host or cells: L929
Kind of data set: Potassium channels patch-clamp (QPatch), KV1.1. The format is cell-based. The procedure: as §1

In a further data set the target is T3, KV1.2 (Rattus norvegicus, UniProt P63142).
T3 construct: expressed in transfected cells; host or cells: B82
In words: Potassium channels patch-clamp (QPatch), KV1.2. The format is cell-based. How it is done:
as §1

For the next data set, the target named is T4, KV1.4 (Homo sapiens, UniProt P22459).
T4 construct: expressed in transfected cells; host or cells: LTK
In words: Potassium channels patch-clamp (QPatch), KV1.4. It is filed as cell-based. The procedure: as §1

The next data set addresses T5, KV1.5 (Homo sapiens, UniProt P22460).
T5 construct: expressed in transfected cells; host or cells: MEL
In words: Potassium channels patch-clamp (QPatch), KV1.5. It is filed as cell-based. The procedure:
as §1

The target of the next data set is T6, KV4.2 (Rattus norvegicus, UniProt Q63881).
T6 construct: expressed in transfected cells; host or cells: LTK
T6 sequence (Q63881 1-630): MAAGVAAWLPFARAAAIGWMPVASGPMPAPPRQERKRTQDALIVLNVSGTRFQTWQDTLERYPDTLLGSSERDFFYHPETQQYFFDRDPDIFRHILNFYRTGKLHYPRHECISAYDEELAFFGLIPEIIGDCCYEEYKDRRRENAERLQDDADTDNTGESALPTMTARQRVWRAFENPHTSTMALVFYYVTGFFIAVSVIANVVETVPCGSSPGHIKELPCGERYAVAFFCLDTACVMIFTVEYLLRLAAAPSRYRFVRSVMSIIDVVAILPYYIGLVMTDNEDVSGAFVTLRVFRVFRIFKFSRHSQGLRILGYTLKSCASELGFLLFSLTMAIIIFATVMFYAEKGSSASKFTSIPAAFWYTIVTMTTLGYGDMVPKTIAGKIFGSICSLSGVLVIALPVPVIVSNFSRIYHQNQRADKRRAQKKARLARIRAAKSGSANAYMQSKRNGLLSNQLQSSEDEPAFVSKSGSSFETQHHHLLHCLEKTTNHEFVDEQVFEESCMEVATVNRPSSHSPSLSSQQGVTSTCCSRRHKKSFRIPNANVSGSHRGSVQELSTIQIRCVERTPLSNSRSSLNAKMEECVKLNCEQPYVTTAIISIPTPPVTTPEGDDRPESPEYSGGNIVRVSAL
Kind of data set: Potassium channels patch-clamp (QPatch), KV4.2. It is filed as cell-based. How it is done: as §1

The next data set has as its target T7, CYP-3A4 (Homo sapiens, UniProt P08684).
T7 construct: from tissue
In words: Cytochrome P450 enzymes inhibition assay, CYP-3A4. The format is in vitro ADME. The note with it: for CYP IC50/KCa3.1 IC50: CYP-3A4. An excerpt: (§2) The metabolite formation for each substrate under the above conditions was estimated using the following formula: Percent inhibition=[1−(test area ratio/control area ratio)]×100.

Another data set deals with T8, CYP-IA2 (Homo sapiens, UniProt P05177).
T8 construct: from tissue
T8 sequence (P05177 1-516): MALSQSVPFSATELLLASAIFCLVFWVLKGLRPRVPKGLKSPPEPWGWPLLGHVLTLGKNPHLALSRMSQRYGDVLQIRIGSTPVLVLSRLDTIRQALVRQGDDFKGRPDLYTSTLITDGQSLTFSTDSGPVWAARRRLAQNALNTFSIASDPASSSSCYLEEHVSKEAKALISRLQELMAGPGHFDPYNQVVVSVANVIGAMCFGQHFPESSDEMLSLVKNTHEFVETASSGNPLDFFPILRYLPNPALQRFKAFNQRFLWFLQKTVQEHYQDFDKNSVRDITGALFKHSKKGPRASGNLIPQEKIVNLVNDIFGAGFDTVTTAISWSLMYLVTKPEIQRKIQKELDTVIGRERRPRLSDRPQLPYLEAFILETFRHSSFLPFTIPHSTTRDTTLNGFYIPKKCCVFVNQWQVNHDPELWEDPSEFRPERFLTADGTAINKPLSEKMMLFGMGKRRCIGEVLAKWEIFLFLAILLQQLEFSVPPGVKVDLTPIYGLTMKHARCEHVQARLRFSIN
Kind of data set: Cytochrome P450 enzymes inhibition assay, CYP-IA2. The format is in vitro ADME. The conditions noted are these: for CYP IC50/KCa3.1 IC50: CYP-IA2.
Source text: as §2

A further data set deals with T9, CYP-2D6 (Homo sapiens, UniProt P10635).
T9 construct: from tissue
Kind of data set: Cytochrome P450 enzymes inhibition assay, CYP-2D6. The note with it: for CYP IC50/KCa3.1 IC50: CYP-2D6. It is filed as in vitro ADME.
Source text: as §2

For the next data set, the target named is CYP-2C19 (Homo sapiens, UniProt P33261). In words: Cytochrome P450 enzymes inhibition assay, CYP-2C19. It is filed as in vitro ADME. The conditions noted are these: for CYP IC50/KCa3.1 IC50: CYP-2C19.
Source text: as §2

Data set [1] concerns the target CaV1.2 channel over KCa3.1 (Homo sapiens, UniProt Q13936). Kind of data set: in vitro. The conditions noted are these: pH 7.4.
A short description of another data set: in vitro. The note with it: human, microsomes, pH 7.4.
The target in another data set is CaV1.2 channel (Homo sapiens, UniProt Q13936). In words: cell-based.
A short description of data set [2]: Microsomal stability studies. The note with it: for Microsomal Stability (human) % remaining @ 30 mins: human microsomes, 1 μM; for drug/control (% remaining @ 30 mins): ratio to Verapamil control.

Sequence of CYP-2C19 (P33261 whole entry): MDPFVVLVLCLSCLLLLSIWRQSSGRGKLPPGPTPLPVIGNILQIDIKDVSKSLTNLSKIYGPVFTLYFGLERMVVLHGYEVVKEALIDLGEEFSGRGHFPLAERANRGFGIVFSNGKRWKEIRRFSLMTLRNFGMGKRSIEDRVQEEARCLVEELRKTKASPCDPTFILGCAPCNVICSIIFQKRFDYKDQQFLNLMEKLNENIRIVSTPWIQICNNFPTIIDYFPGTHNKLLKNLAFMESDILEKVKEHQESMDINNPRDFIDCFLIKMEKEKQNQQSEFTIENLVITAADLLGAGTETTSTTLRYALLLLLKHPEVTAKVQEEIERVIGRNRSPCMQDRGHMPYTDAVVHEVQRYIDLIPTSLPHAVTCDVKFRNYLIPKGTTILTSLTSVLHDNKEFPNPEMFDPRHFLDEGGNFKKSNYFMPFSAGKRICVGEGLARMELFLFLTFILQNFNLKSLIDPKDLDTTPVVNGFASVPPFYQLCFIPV
T9 sequence (P10635 whole entry): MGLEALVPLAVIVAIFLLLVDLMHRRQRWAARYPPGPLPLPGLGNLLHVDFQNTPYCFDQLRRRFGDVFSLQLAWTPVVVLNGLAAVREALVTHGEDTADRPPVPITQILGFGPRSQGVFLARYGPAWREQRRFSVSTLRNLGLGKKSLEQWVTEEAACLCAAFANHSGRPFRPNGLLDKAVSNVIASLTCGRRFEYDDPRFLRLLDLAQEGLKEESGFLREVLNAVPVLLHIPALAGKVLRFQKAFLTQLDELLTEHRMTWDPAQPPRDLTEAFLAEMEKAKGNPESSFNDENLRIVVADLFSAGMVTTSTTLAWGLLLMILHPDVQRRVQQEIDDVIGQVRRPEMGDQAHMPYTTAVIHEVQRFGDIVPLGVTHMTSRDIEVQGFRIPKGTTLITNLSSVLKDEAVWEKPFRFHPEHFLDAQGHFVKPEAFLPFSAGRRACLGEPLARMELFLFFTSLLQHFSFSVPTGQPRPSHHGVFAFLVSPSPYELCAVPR
T7 sequence (P08684 whole entry): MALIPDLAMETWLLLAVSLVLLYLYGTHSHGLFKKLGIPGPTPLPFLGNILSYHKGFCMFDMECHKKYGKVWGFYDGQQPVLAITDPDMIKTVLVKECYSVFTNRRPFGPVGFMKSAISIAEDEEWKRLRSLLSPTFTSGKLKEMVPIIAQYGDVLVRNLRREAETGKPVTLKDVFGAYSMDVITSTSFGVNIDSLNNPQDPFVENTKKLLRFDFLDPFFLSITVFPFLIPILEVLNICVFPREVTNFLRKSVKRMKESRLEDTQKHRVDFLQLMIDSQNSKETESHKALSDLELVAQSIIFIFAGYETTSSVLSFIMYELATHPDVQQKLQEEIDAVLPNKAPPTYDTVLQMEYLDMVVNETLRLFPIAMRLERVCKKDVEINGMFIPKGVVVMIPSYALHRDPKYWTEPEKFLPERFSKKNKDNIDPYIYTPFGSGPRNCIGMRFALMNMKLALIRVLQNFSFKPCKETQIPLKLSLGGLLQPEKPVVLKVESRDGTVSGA
T4 sequence (P22459 whole entry): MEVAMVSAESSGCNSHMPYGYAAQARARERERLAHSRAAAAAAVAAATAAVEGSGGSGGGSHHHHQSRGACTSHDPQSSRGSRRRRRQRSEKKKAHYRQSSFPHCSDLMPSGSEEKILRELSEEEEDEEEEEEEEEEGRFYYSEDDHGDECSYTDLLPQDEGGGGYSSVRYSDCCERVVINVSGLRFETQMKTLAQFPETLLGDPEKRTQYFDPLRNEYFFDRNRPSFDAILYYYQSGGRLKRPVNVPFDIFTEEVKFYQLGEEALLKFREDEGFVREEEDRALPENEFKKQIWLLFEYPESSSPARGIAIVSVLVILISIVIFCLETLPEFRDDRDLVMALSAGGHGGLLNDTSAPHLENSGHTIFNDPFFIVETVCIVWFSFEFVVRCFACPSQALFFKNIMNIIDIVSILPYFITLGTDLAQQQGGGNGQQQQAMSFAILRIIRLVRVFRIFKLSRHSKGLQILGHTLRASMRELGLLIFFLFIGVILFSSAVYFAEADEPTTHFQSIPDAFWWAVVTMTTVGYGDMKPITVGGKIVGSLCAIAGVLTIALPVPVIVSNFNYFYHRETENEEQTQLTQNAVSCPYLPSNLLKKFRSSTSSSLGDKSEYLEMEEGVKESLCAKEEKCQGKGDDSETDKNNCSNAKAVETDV
T1 sequence (Q12791 whole entry): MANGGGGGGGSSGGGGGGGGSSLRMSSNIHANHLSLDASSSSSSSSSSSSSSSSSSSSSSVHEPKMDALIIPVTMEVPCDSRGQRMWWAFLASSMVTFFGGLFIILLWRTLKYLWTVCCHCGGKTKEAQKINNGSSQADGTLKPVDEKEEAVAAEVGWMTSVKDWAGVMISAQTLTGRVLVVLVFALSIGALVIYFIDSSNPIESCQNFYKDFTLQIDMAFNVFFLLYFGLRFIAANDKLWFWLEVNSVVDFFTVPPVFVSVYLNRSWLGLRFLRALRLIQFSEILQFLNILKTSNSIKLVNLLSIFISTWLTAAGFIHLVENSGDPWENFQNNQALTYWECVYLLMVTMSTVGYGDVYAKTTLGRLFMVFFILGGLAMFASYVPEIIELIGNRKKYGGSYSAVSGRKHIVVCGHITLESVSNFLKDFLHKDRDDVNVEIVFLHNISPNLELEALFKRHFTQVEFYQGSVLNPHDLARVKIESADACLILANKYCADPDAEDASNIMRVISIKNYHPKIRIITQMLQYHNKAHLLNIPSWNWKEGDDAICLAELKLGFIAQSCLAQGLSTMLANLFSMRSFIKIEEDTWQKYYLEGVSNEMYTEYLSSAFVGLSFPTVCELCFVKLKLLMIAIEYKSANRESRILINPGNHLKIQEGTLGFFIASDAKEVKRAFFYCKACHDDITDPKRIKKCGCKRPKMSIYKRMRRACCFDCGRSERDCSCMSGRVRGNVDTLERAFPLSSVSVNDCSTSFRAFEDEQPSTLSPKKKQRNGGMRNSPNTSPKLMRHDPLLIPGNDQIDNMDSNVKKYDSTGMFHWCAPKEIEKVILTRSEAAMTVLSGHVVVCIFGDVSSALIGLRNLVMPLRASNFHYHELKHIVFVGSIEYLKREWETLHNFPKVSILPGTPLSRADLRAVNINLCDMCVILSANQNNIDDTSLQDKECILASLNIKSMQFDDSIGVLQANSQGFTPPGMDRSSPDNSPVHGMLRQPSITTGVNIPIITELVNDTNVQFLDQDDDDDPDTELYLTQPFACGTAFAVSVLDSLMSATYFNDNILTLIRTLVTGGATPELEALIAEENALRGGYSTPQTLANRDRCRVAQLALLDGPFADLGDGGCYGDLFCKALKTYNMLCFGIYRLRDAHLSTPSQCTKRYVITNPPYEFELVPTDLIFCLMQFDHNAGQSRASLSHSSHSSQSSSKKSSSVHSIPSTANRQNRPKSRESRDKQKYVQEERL
T3 sequence (P63142 whole entry): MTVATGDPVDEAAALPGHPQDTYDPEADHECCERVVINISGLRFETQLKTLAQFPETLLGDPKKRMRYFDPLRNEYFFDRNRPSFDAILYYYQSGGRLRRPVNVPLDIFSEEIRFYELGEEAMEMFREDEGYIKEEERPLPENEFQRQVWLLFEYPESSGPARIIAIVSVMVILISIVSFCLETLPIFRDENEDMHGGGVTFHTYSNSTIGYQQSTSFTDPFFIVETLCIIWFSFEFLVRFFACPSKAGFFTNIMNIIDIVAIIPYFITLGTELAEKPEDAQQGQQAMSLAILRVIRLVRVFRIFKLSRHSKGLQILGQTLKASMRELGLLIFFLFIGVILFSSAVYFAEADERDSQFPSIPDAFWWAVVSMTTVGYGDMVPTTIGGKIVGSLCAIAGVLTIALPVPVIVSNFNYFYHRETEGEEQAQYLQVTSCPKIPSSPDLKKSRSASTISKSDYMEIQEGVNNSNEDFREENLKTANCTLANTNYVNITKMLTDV
T5 sequence (P22460 whole entry): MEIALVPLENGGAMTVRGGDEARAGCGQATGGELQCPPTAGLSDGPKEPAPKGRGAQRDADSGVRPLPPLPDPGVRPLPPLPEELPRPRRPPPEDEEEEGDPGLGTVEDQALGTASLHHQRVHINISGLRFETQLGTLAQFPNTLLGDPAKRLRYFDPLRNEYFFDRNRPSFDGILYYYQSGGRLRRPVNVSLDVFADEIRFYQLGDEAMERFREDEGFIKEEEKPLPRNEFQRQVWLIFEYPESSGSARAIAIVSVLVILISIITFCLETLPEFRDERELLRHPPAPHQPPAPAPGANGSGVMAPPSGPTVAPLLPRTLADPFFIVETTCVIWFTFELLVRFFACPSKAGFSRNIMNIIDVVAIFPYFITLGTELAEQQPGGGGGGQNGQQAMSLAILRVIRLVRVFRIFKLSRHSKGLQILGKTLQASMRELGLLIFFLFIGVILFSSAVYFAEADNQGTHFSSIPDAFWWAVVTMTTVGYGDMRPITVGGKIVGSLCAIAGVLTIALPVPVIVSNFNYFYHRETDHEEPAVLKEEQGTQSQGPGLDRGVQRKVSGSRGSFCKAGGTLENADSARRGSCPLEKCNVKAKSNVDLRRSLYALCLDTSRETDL
T2 sequence (P16388 whole entry): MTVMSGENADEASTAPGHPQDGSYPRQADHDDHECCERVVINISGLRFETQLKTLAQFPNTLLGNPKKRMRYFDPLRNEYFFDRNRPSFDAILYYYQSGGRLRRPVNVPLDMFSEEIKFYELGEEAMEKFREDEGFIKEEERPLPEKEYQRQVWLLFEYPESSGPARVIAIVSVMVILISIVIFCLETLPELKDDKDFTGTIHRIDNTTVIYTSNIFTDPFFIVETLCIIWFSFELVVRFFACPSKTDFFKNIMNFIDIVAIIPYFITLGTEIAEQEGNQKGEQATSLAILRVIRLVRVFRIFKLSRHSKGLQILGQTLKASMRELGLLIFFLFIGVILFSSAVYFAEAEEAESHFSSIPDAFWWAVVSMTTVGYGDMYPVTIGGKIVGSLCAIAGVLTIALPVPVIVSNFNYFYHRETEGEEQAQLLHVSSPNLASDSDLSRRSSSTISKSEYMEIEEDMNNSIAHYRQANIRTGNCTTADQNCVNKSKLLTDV

Consider `COC(=O)C1=CNC=C(C(=O)OC)C1c1ccc(F)c(C(F)(F)F)c1` [Compound 103, Dimethyl 4-(4-fluoro-3-(trifluoromethyl)phenyl)-1,4-dihydropyridine-3,5-dicarboxylate], for which the IC50 (usually the concentration at which inhibition is half-maximal) on KCa3.1 channel (KCa3.1, Table 5) was 6.1 ± 0.9 nM; at KCa3.1 channel (KCa3.1 IC50 (nM), Table 3), 6.1 nM; against KCa1.1, > 10 µM; against KV1.1 it was > 10 µM; against KV1.2 it was > 10 µM; against KV1.4, > 10 µM. The IC50 is > 10 µM against KV1.5, > 10 µM against KV4.2 and 13.5 µM against CaV1.2 channel. For the same compound, the “CYP IC50/KCa3.1 IC50” value on CYP-3A4, on CYP-IA2, on CYP-2D6 and on CYP-2C19 was 3279 each time. Besides, the selectivity ratio in data set [1] is 2210. In addition, in “in vitro”, the half-life (usually the time needed for the level to fall by half in the phase considered) at 1 μM was 16 min. The “Microsomal Stability (human) % remaining @ 30 mins” value in data set [2] is reported as 25%. For the same compound, the “drug/control (% remaining @ 30 mins)” value in [2] worked out at 3.7.
Take `COC(=O)C1=C(C)NC(C)=C(C(=O)OC)C1c1ccc(F)c(C(F)(F)F)c1` [Compound 101]: the half-inhibitory concentration (IC50) against KCa3.1 channel (IC50 (nM), block of KCa3.1, patch clamp (Table 2)) is 16 ± 0.2 nM; at KCa3.1 channel (KCa3.1, Table 5), 16.2 ± 0.2 nM; against KCa1.1 it was > 10 µM; against KV1.1 it was > 10 µM; against KV1.2, > 10 µM; at KV1.4, > 10 µM. Moreover, the IC50 on KV1.5 was > 10 µM; on KV4.2, > 10 µM; on CYP-3A4 (microsomes) it was 1.3 µM; at CYP-IA2 (microsomes), 9.1 µM; against CYP-2D6 (microsomes), > 20 µM; against CYP-2C19 (microsomes), > 20 µM. Also, the IC50 against CaV1.2 channel is 3.2 µM. The “CYP IC50/KCa3.1 IC50” value turned out to be 79.75 on CYP-3A4, 558 on CYP-IA2, 1226 at CYP-2D6 and 1226 at CYP-2C19. Moreover, the selectivity ratio in data set [1] came to 200. Also, the half-life at 1 μM in the data set “in vitro” was 22 min. The “Microsomal Stability (human) % remaining @ 30 mins” value in data set [2] is listed as 53%. In addition, in data set [2], the “drug/control (% remaining @ 30 mins)” value is on record as 1.6.
